This passage reports EC50 results from US9586961B2, “Homopiperazine derivatives as protein tyrosine kinase inhibitors and pharmaceutical use thereof” (LEO PHARMA A/S, priority 2010, dated 2017).

SMILES strings stand for the structures.

What all share (type): biochemical
Assay [1] addresses T1, JAK1 (Homo sapiens, UniProt P23458).
T1 construct: JAK1 (aa 850-1154) and TYK2 (aa 871-1187) are expressed with an N-terminally fused GST-tag; GST (N); purchased Carna Biosciences, Inc; host or cells: baculovirus expression system
Briefly: JAK1 kinase assay (HTRF, inhibition of phosphorylation of a synthetic peptide). Particulars: catalytic domain aa 850-1154, GST-tag; 7 μM ATP (Km); read-out: JAK1 kinase inhibitory activity (EC50). How it is done: (§1) JAK1, JAK2, JAK3 and TYK2 Kinase Assays:
(§2) Human baculovirus-expressed JAK1, 2, 3 and TYK2 were purchased from Carna Biosciences, Inc. All four purified enzymes contain only the catalytic domain. JAK1 (aa 850-1154) and TYK2 (aa 871-1187) are expressed with an N-terminally fused GST-tag, and JAK2 and JAK3 with an N-terminally fused His-tag. Inhibition of phosphorylation of a synthetic peptide was measured in an HTRF-based assay using the TK substrate-Biotin from the CisbioHTRFKinEASE TK kit. First, 2 μl of TK solution (TK substrate-biotin in kinase buffer [1× enzymatic buffer from HTRFKinEASE TK kit, 1 mM DTT]) is added to a plate containing 1 μl prediluted compound (final assay concentration DMSO: 0.75%). Then, 5 μl kinase-ATP mix (prepared in kinase buffer) is added to the wells and the plates are incubated at RT for 20-30 min. For all four kinases a concentration of ATP that corresponded to the Km for ATP was used. The final concentrations of buffers, substrate, kinase and ATP were: JAK1: 50 mMHepes buffer pH 7.0, 0.01% BSA, 10 mM MgCl2, 1 mM DTT, 7 μM ATP, 50 nMSEB, 1 μM TK Substrate-Biotin and 5 ng JAK1; JAK2: 50 mM Hepes buffer pH 7.0, 0.01% BSA, 5 mM MgCl2, 1 mM DTT, 4 μM ATP, 1 μM TK Substrate-Biotin and 0.1 ng JAK2; JAK3: 50 mMHepes buffer pH 7.0, 0.01% BSA, 5 mM MgCl2, 1 mM DTT, 2 μM ATP, 1 μM TK Substrate-Biotin and 0.3 ng JAK3; TYK2: 50 mMHepes buffer pH 7.0, 0.01% BSA, 5 mM MgCl2, 1 mM DTT, 13 μM ATP, 50 nMSEB, 1 μM TK Substrate-Biotin and 0.8 ng TYK2. Thereafter, the kinase reaction is stopped by adding 4 μl detection mix (final concentrations: 50 mM Hepes buffer pH 7.0, 0.01% BSA, 0.8 M KF, 20 mM EDTA, 42 nM Streptavidin-XL665 and 1:400 STKAbCryptate) and the plates are incubated overnight in the dark. The HTRF signal is read using an Envision plate reader.
(TR-FRET usually uses a lanthanide donor and a delayed reading to cut background.)

The target in assay [2] is T2, JAK3 (Homo sapiens, UniProt P52333).
T2 construct: All four purified enzymes contain only the catalytic domain; His (N); purchased Carna Biosciences, Inc; host or cells: baculovirus expression system
Briefly: JAK3 kinase assay (HTRF, inhibition of phosphorylation of a synthetic peptide). Particulars: catalytic domain, His-tag; 2 μM ATP (Km); read-out: JAK3 kinase inhibitory activity (EC50). The procedure:
as §1, §2

For assay [3], the target named is T3, JAK2 (Homo sapiens, UniProt O60674).
T3 construct: All four purified enzymes contain only the catalytic domain; His (N); purchased Carna Biosciences, Inc; host or cells: baculovirus expression system
Briefly: JAK2 kinase assay (HTRF, inhibition of phosphorylation of a synthetic peptide). The settings on record: catalytic domain, His-tag; 4 μM ATP (Km); read-out: JAK2 kinase inhibitory activity (EC50). The procedure:
as §1, §2

T3 sequence (O60674 849-1124 limits assumed): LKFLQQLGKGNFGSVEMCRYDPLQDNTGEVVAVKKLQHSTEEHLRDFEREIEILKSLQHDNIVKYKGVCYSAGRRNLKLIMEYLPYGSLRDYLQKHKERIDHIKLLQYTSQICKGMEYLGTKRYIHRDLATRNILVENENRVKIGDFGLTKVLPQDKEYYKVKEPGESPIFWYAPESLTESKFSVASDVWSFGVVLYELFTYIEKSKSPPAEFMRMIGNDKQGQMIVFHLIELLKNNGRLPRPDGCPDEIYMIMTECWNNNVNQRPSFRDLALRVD
T1 sequence (P23458 850-1154): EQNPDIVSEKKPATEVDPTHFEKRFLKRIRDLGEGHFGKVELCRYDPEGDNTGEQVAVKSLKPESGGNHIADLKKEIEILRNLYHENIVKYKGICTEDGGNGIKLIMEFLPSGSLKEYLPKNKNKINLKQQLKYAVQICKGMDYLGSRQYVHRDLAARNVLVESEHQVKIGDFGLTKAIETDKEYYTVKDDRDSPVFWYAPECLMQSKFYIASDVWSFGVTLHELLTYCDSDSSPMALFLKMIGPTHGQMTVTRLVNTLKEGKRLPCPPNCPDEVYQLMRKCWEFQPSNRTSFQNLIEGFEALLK
T2 sequence (P52333 822-1111 limits assumed): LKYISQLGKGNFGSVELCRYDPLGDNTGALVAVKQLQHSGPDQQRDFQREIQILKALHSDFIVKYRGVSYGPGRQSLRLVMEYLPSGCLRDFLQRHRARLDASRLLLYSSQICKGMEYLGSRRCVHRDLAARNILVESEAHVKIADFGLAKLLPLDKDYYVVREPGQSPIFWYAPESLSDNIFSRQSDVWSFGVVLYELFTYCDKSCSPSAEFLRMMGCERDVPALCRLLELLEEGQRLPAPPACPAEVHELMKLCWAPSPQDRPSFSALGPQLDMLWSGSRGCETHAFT

As a reminder, the EC50 is the concentration at which the effect is half-maximal. As for `Cc1ncccc1C(=O)N1CCN(c2ncnc3[nH]ccc23)CC2(CC2)C1` [Example 135, (2-methyl-3-pyridyl)-[5-(7H-pyrrolo[2,3-d]pyrimidin-4-yl)-5,8-diazaspiro[2.6]nonan-8-yl]methanone], the EC50 in assay [1], in assay [2] and in assay [3] was > 1000 nM in each case.
As for `Cc1ncccc1C(=O)N1CCCN(c2ncnc3[nH]ccc23)CC12CC2` [Example 136, (2-methyl-3-pyridyl)-[5-(7H-pyrrolo[2,3-d]pyrimidin-4-yl)-5,9-diazaspiro[2.6]nonan-9-yl]methanone], the EC50 in assay [1] is > 1000 nM; in assay [2], > 1000 nM; in assay [3] it was 100 to 1000 nM.
For the compound `Cc1cnccc1C(=O)N1CCN(c2ncnc3[nH]ccc23)CC2(CC2)C1` [Example 137, (3-methyl-4-pyridyl)-[5-(7H-pyrrolo[2,3-d]pyrimidin-4-yl)-5,8-diazaspiro[2.6]nonan-8-yl]methanone], the figures for the EC50 in assay [1], in assay [2] and in assay [3] were > 1000 nM, > 1000 nM and 100 to 1000 nM, respectively.
`Cc1cnccc1C(=O)N1CCCN(c2ncnc3[nH]ccc23)CC12CC2` [Example 138, (3-methyl-4-pyridyl)-[5-(7H-pyrrolo[2,3-d]pyrimidin-4-yl)-5,9-diazaspiro[2.6]nonan-9-yl]methanone]: the concentration giving a half-maximal response (EC50) is > 1000 nM in assay [1], > 1000 nM in assay [2] and 100 to 1000 nM in assay [3].
In the case of `O=C(c1ccnnc1)N1CCN(c2ncnc3[nH]ccc23)CC2(CC2)C1` [Example 139, pyridazin-4-yl-[5-(7H-pyrrolo[2,3-d]pyrimidin-4-yl)-5,8-diazaspiro[2.6]nonan-8-yl]methanone], the results for the EC50 in assay [1], in assay [2] and in assay [3] were 100 to 1000 nM, > 1000 nM and 100 to 1000 nM, respectively.
`Cc1nc(C)c(CC(=O)N2CCCN(c3ncnc4[nH]ccc34)CC23CC3)s1` [Example 140, 2-(2,4-dimethylthiazol-5-yl)-1-[5-(7H-pyrrolo[2,3-d]pyrimidin-4-yl)-5,9-diazaspiro[2.6]nonan-9-yl]ethanone]: the EC50 in assay [1], in assay [2] and in assay [3] was > 1000 nM each time.
Take `Cc1cc(C(=O)N2CCN(c3ncnc4[nH]ccc34)CC3(CC3)C2)n(C)n1` [Example 143, (2,5-dimethylpyrazol-3-yl)-[5-(7H-pyrrolo[2,3-d]pyrimidin-4-yl)-5,8-diazaspiro[2.6]nonan-8-yl]methanone]: the EC50 in assay [1], in assay [2] and in assay [3] was > 1000 nM throughout.
As to `Cn1cncc1C(=O)N1CCN(c2ncnc3[nH]ccc23)CC2(CC2)C1` [Example 144, (3-methylimidazol-4-yl)-[5-(7H-pyrrolo[2,3-d]pyrimidin-4-yl)-5,8-diazaspiro[2.6]nonan-8-yl]methanone], the EC50 is 100 to 1000 nM in assay [1], > 1000 nM in assay [2] and 100 to 1000 nM in assay [3].
As for `Cn1cncc1C(=O)N1CCCN(c2ncnc3[nH]ccc23)CC12CC2` [Example 145, (3-methylimidazol-4-yl)-[5-(7H-pyrrolo[2,3-d]pyrimidin-4-yl)-5,9-diazaspiro[2.6]nonan-9-yl]methanone], the EC50 was 100 to 1000 nM in assay [1], > 1000 nM in assay [2] and 100 to 1000 nM in assay [3].
`Cc1nnsc1C(=O)N1CCN(c2ncnc3[nH]ccc23)CC2(CC2)C1` [Example 146, (4-methylthiadiazol-5-yl)-[5-(7H-pyrrolo[2,3-d]pyrimidin-4-yl)-5,8-diazaspiro[2.6]nonan-8-yl]methanone]: the EC50 in assay [1] is 100 to 1000 nM; in assay [2], > 1000 nM; in assay [3], 100 to 1000 nM.
Turning to `Cc1nnsc1C(=O)N1CCCN(c2ncnc3[nH]ccc23)CC12CC2` [Example 147, (4-methylthiadiazol-5-yl)-[5-(7H-pyrrolo[2,3-d]pyrimidin-4-yl)-5,9-diazaspiro[2.6]nonan-9-yl]methanone], the results for the EC50 in assay [1], in assay [2] and in assay [3] were 100 to 1000 nM, > 1000 nM and 100 to 1000 nM, respectively.
On to `Cc1cc(C(=O)N2CCN(c3ncnc4[nH]ccc34)CC3(CC3)C2)[nH]n1` [Example 148, (5-methyl-1H-pyrazol-3-yl)-[5-(7H-pyrrolo[2,3-d]pyrimidin-4-yl)-5,8-diazaspiro[2.6]nonan-8-yl]methanone], for which the EC50 is 100 to 1000 nM in assay [1], > 1000 nM in assay [2] and 100 to 1000 nM in assay [3].
On to `Cc1cc(C(=O)N2CCCN(c3ncnc4[nH]ccc34)CC23CC3)n[nH]1` [Example 149, (5-methyl-1H-pyrazol-3-yl)-[5-(7H-pyrrolo[2,3-d]pyrimidin-4-yl)-5,9-diazaspiro[2.6]nonan-9-yl]methanone], for which the EC50 in assay [1] was 100 to 1000 nM; in assay [2] it was > 1000 nM; in assay [3] it was 100 to 1000 nM.
With `Cc1ccncc1C(=O)N1CCN(c2ncnc3[nH]ccc23)CC2(CC2)C1` [Example 150, (4-methyl-3-pyridyl)-[5-(7H-pyrrolo[2,3-d]pyrimidin-4-yl)-5,8-diazaspiro[2.6]nonan-8-yl]methanone], the EC50 is 100 to 1000 nM in assay [1], > 1000 nM in assay [2] and > 1000 nM in assay [3].
`Cc1ccncc1C(=O)N1CCCN(c2ncnc3[nH]ccc23)CC12CC2` [Example 151, (4-methyl-3-pyridyl)-[5-(7H-pyrrolo[2,3-d]pyrimidin-4-yl)-5,9-diazaspiro[2.6]nonan-9-yl]methanone]: the values for the EC50 in assay [1], in assay [2] and in assay [3] were 100 to 1000 nM, > 1000 nM and 100 to 1000 nM, respectively.
Regarding `O=C(c1ccon1)N1CCN(c2ncnc3[nH]ccc23)CC2(CC2)C1` [Example 152, isoxazol-3-yl-[5-(7H-pyrrolo[2,3-d]pyrimidin-4-yl)-5,8-diazaspiro[2.6]nonan-8-yl]methanone], the EC50 in assay [1], in assay [2] and in assay [3] was 100 to 1000 nM throughout.
`Cc1nnc(C(=O)N2CCCN(c3ncnc4[nH]ccc34)CC23CC3)o1` [Example 154, (5-methyl-1,3,4-oxadiazol-2-yl)-[5-(7H-pyrrolo[2,3-d]pyrimidin-4-yl)-5,9-diazaspiro[2.6]nonan-9-yl]methanone]: the EC50 in assay [1] is 100 to 1000 nM; in assay [2], 100 to 1000 nM; in assay [3] it was < 100 nM.
Turning to `O=C(c1cnco1)N1CCN(c2ncnc3[nH]ccc23)CC2(CC2)C1` [Example 155, oxazol-5-yl-[5-(7H-pyrrolo[2,3-d]pyrimidin-4-yl)-5,8-diazaspiro[2.6]nonan-8-yl]methanone], the EC50 in assay [1], in assay [2] and in assay [3] was 100 to 1000 nM each time.
With `O=C(c1cnco1)N1CCCN(c2ncnc3[nH]ccc23)CC12CC2` [Example 156, oxazol-5-yl-[5-(7H-pyrrolo[2,3-d]pyrimidin-4-yl)-5,9-diazaspiro[2.6]nonan-9-yl]methanone], the EC50 in assay [1], in assay [2] and in assay [3] was 100 to 1000 nM throughout.
For the compound `O=C(c1cn[nH]c1)N1CCN(c2ncnc3[nH]ccc23)CC2(CC2)C1` [Example 157, 1H-pyrazol-4-yl-[5-(7H-pyrrolo[2,3-d]pyrimidin-4-yl)-5,8-diazaspiro[2.6]nonan-8-yl]methanone], the EC50 in assay [1], in assay [2] and in assay [3] was 100 to 1000 nM in each case.
In the case of `O=C(Cc1ccc(F)cc1)N1CCCN(c2ncnc3[nH]ccc23)CC12CC2` [Example 159, 2-(4-fluorophenyl)-1-[5-(7H-pyrrolo[2,3-d]pyrimidin-4-yl)-5,9-diazaspiro[2.6]nonan-9-yl]ethanone], the EC50 was 100 to 1000 nM in assay [1], > 1000 nM in assay [2] and < 100 nM in assay [3].
For `O=C(c1cncnc1)N1CCN(c2ncnc3[nH]ccc23)CC2(CC2)C1` [Example 160, pyrimidin-5-yl-[5-(7H-pyrrolo[2,3-d]pyrimidin-4-yl)-5,8-diazaspiro[2.6]nonan-8-yl]methanone], the EC50 in assay [1] is > 1000 nM; in assay [2], > 1000 nM; in assay [3], 100 to 1000 nM.
